Several values for one entry are separate records, joined by “and”; a condition that tells them apart may be missing. Equal values may be shown once. Read-outs that look alike come from different tables or passages of the source.
Assays:
CYP2D6 = assay: in vitro
Procedure: (§1) (OHBUP-[D6]) and 5 nM 4′-hydroxydiclofenac-[^13C6] (OHDIC-[^13C6]) as internal standards (ISs). […]
(§2) standard addition experiments. Each group included four concentration levels. For the PK […]
(§3) The probe compounds, viz. […]
(§4) chosen after incubating all the recruited substrates. In order to assure the linear relationship […]
(§5) The incubation system was also optimized in terms of substrate concentrations. The substrates concentrations of […]

CYP2B6 = assay: In vitro cocktail CYP450 activity assay in rat liver microsomes, CYP2B6 (bupropion probe); conditions: for IC50 at 15 min: Sprague-Dawley, rat, pooled rat liver microsomes, pH 7.4, probe bupropion (90 µM, in seven-probe cocktail), IC50 CYP2B6, single components
Procedure: as §1, §2, §3, §4, §5

CYP3A4 = assay: in vitro
Procedure: as §1, §2, §3, §4, §5

CYP2C9 = assay: In vitro cocktail CYP450 activity assay in rat liver microsomes, CYP2C9 (tolbutamide probe)
Procedure: as §1, §2, §3, §4, §5

CYP1A2 = molecular target: T1, CYP1A2 (Rattus norvegicus, UniProt P04799); assay: In vitro cocktail CYP450 activity assay in rat liver microsomes, CYP1A2 (phenacetin probe)
T1 sequence (P04799 1-513): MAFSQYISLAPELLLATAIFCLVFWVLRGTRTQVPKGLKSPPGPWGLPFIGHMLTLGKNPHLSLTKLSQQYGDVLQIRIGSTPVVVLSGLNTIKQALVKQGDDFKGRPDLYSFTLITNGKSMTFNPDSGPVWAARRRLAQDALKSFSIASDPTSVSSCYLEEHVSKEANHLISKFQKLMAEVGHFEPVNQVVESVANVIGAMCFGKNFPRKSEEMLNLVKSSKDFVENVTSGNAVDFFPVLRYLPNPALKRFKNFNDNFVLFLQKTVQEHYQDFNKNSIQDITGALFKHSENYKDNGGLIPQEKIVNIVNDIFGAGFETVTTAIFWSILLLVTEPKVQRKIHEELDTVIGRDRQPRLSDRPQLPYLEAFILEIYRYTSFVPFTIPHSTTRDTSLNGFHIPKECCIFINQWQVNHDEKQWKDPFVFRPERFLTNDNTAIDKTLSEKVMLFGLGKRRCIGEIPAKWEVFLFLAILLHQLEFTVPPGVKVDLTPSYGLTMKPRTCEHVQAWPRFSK
Procedure: as §1, §2, §3, §4, §5

CYP2C19 = assay: In vitro cocktail CYP450 activity assay in rat liver microsomes, CYP2C19 (omeprazole probe)
Procedure: as §1, §2, §3, §4, §5

CYP2E1 [1] = molecular target: T2, CYP2E1 (Rattus norvegicus, UniProt P05182)
T2 sequence (P05182 whole entry): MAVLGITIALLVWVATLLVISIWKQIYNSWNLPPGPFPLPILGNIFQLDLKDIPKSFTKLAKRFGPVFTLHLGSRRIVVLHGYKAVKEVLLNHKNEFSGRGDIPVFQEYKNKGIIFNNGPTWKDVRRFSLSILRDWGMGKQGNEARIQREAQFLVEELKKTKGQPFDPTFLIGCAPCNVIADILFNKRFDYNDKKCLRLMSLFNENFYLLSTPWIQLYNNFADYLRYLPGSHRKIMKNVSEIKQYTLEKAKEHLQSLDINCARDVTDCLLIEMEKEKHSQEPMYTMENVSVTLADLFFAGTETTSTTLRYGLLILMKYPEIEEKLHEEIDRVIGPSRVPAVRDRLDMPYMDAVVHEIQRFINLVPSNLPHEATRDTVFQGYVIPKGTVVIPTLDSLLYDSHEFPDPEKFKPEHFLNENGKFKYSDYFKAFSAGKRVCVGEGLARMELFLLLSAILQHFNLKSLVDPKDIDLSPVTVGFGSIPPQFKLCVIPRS

CYP2E1 [2] = molecular target: T2, CYP2E1; conditions: IC50 CYP2E1, single components; RLM 0.2 mg/mL, 15 min, triplicate, mean ± SD
[3] = read-out: IC50 CYP2D6, single components, RLM 0.2 mg/mL, 15 min, triplicate, mean ± SD
[4] = read-out: IC50 CYP2B6, single components, RLM 0.2 mg/mL, 15 min, triplicate, mean ± SD
[5] = read-out: IC50 CYP3A4, single components, RLM 0.2 mg/mL, 15 min, triplicate, mean ± SD
[6] = read-out: IC50 CYP2C9, single components, RLM 0.2 mg/mL, 15 min, triplicate, mean ± SD
[7] = read-out: IC50 CYP1A2, single components, RLM 0.2 mg/mL, 15 min, triplicate, mean ± SD
[8] = read-out: IC50 CYP2C19, single components, RLM 0.2 mg/mL, 15 min, triplicate, mean ± SD
[9] = read-out: IC50 CYP2E1, single components, RLM 0.2 mg/mL, 15 min, triplicate, mean ± SD
[10] = RLM 0.2 mg/mL, 15 min, triplicate, mean ± SD
[11] = Sprague-Dawley, rat, microsomes, pH 7.4
[12] = IC50 CYP1A2, single components, RLM 0.2 mg/mL, 15 min, triplicate, mean ± SD

For O=c1c(O[C@@H]2O[C@H](CO)[C@@H](O)[C@H](O)[C@H]2O)c(-c2ccc(O)cc2)oc2cc(O)cc(O)c12 [A7, kaempferol-3-O-glucoside], the IC50 (CYP2D6; [3]) was 31 ± 4.17 µM, the IC50 (CYP2B6; [4]) was 177 ± 4.21 µM and the IC50 (CYP3A4; [5]) was 127 ± 4.24 µM. For the same compound, the IC50 (CYP2C9; [6]) was 80.5 ± 1.05 µM, the IC50 (CYP1A2; [7]) was 153 ± 8.73 µM and the IC50 (CYP2C19; [8]) was 18.5 ± 1.6 µM. For the same compound, the IC50 (CYP2E1 [1]; [9]) was 13.6 ± 0.6 µM.

O=c1c(OC2O[C@H](CO)[C@@H](O)[C@H](O)[C@H]2O)c(-c2ccc(O)cc2)oc2cc(OC3O[C@H](CO)[C@@H](O)[C@H](O)[C@H]3O)c(OC3O[C@H](CO)[C@@H](O)[C@H](O)[C@H]3O)c(O)c12 (some centres unmarked) [A10, 6-hydroxykaempferol-3,6,7-tri-O-glucoside] showed an IC50 (CYP2D6; microsomes) of over 200 µM, an IC50 (CYP2B6; microsomes) of over 200 µM and an IC50 (CYP3A4; microsomes) of over 200 µM. It also gave an IC50 (CYP2C9; microsomes) of 39.06 ± 0.09 µM, an IC50 (CYP1A2; microsomes) of over 200 µM and an IC50 (CYP2C19; microsomes) of over 200 µM. The IC50 (CYP2E1 [1]; microsomes) was over 200 µM.

For C[C@@H]1OC(OC[C@H]2OC(Oc3c(-c4ccc(O)cc4)oc4cc(O)c(OC5O[C@H](CO)[C@@H](O)[C@H](O)[C@H]5O)c(O)c4c3=O)[C@H](O)[C@@H](O)[C@@H]2O)[C@H](O)[C@H](O)[C@H]1O (some centres unmarked) [A12, 6-hydroxykaempferol-3-O-rutinosyl-6-O-glucoside], the IC50 (CYP2D6; microsomes) was 98.6 ± 12.3 µM, the IC50 (CYP2B6; microsomes) was over 200 µM and the IC50 (CYP3A4; microsomes) was over 200 µM. It also gave an IC50 (CYP2C9; microsomes) of over 200 µM, an IC50 (CYP1A2; microsomes) of over 200 µM and an IC50 (CYP2C19; microsomes) of over 200 µM. It also gave an IC50 (CYP2E1 [1]; microsomes) of over 200 µM.

O=c1c(O[C@@H]2O[C@H](CO)[C@@H](O)[C@H](O)[C@H]2O[C@@H]2O[C@H](CO)[C@@H](O)[C@H](O)[C@H]2O)c(-c2ccc(O)cc2)oc2cc(O)cc(O)c12 [A14, kaempferol-3-O-sophoroside] gave an IC50 (CYP2D6; microsomes) of over 200 µM, an IC50 (CYP2B6; microsomes) of over 200 µM and an IC50 (CYP3A4; [5]) of over 200 µM. For the same compound, the IC50 (CYP2C9; [6]) was over 200 µM, the IC50 (CYP1A2; [7]) was over 200 µM and the IC50 (CYP2C19; microsomes) was over 200 µM. The IC50 (CYP2E1 [1]; [9]) was over 200 µM.

Work on O=C(O)[C@H]1OC(Oc2cc3oc(-c4ccc(O)cc4)cc(=O)c3c(O)c2OC2O[C@H](CO)[C@@H](O)[C@H](O)[C@H]2O)[C@H](O)[C@@H](O)[C@@H]1O (some centres unmarked) [A15, 6-hydroxyapigenin-6-O-glucosyl-7-O-glucuronide] yielded an IC50 (CYP2D6; microsomes) of over 200 µM, an IC50 (CYP2B6; microsomes) of over 200 µM and an IC50 (CYP3A4; microsomes) of over 200 µM. It also gave an IC50 (CYP2C9; microsomes) of over 200 µM, an IC50 (CYP1A2; microsomes) of 127 ± 6.55 µM and an IC50 (CYP2C19; microsomes) of over 200 µM. The IC50 (CYP2E1 [1]; microsomes) was over 200 µM.

In the case of O=c1c(O)c(-c2ccc(O)cc2)oc2cc(O)cc(O)c12 [A17, kaempferol], the IC50 at 15 min (CYP2D6; Sprague-Dawley, rat, microsomes, pH 7.4, IC50 CYP2D6) is reported as 59.2 ± 1.01 µM, the IC50 at 15 min (CYP2B6; [10]) is reported as over 200 µM and the IC50 at 15 min (CYP3A4; [11]) is reported as 117 ± 6.77 µM. For the same compound, the IC50 at 15 min (CYP2C9; Sprague-Dawley, rat, pooled rat liver microsomes, pH 7.4, probe tolbutamide (18 µM, in seven-probe cocktail), IC50 CYP2C9, single components, RLM 0.2 mg/mL, 15 min, triplicate, mean ± SD) was 14.9 ± 4.24 µM, the IC50 (CYP1A2; [12]) was 21.5 ± 4.5 µM and the IC50 at 15 min (CYP2C19; Sprague-Dawley, rat, pooled rat liver microsomes, pH 7.4, probe omeprazole (1.07 µM, in seven-probe cocktail), IC50 CYP2C19, single components, RLM 0.2 mg/mL, 15 min, triplicate, mean ± SD) was 70.4 ± 1.18 µM. The IC50 (CYP2E1 [2]) was 32.5 ± 5.79 µM.

In the case of O=c1c(O)c(-c2ccc(O)cc2)oc2cc(O)c(O)c(O)c12 [A18, 6-hydroxykaempferol], the IC50 at 15 min (CYP2B6; [10]) is reported as under 5 µM, the IC50 (CYP2B6; [4]) is reported as 4.42 ± 1.31 µM and the IC50 (CYP1A2; [12]) is reported as < 5 µM and 0.12 µM. For the same compound, the IC50 (CYP2E1 [2]) was < 5 µM and 4.27 µM.

In the case of Carthamus tinctorius extract [CTE], the “IC50 CYP2D6” value (CYP2D6; microsomes) is reported as 126.17 ± 17.63 µg/mL, the “inhibition on CYP2D6 (in words)” value (CYP2D6; microsomes) is reported as “weak inhibition” and the “IC50 CYP2B6” value (CYP2B6; microsomes) is reported as 58.09 ± 13.41 µg/mL. The “inhibition on CYP2B6 (in words)” value (CYP2B6; microsomes) was “moderate inhibition”, the “IC50 CYP3A4” value (CYP3A4; microsomes) was over 200 µg/mL and the “IC50 CYP2C9” value (CYP2C9; microsomes) was 183.30 ± 17.98 µg/mL. The “inhibition on CYP2C9 (in words)” value (CYP2C9; microsomes) was “weak inhibition”, the “IC50 CYP1A2” value (CYP1A2; microsomes) was 138.60 ± 14.36 µg/mL and the “inhibition on CYP1A2 (in words)” value (CYP1A2; microsomes) was “weak inhibition”. The “IC50 CYP2C19” value (CYP2C19; microsomes) was over 200 µg/mL.

For kaempferol-3-O-rutinoside [A11], the IC50 (CYP2D6; [3]) was 64.5 ± 7.71 µM, the IC50 (CYP2B6; [4]) was 17.3 ± 0.96 µM and the IC50 (CYP3A4; [5]) was 16.2 ± 4.3 µM. The IC50 (CYP2C9; [6]) was 24.9 ± 4.96 µM and the IC50 (CYP2C19; [8]) was over 200 µM.

With notoginseng total saponins [NGTS] the “IC50 CYP2D6” value (CYP2D6; microsomes) was 12.23 ± 4.25 µg/mL, the “IC50 CYP2B6” value (CYP2B6; microsomes) was 43.90 ± 7.91 µg/mL and the “IC50 CYP3A4” value (CYP3A4; microsomes) was 106.27 ± 14.00 µg/mL. For the same compound, the “IC50 CYP2C9” value (CYP2C9; microsomes) was 9.32 ± 0.56 µg/mL, the “IC50 CYP1A2” value (CYP1A2; microsomes) was 60.68 ± 2.26 µg/mL and the “IC50 CYP2C19” value (CYP2C19; microsomes) was 40.85 ± 6.98 µg/mL.

Reference: paper PMC7076352 (Pharmaceutics, 2020)
